Data on five molecules can be found in patent publication US9718835B2 (China Medical University Hospital, priority 2013, dated 2017).

Data set [1] concerns the target T1, recombinant human Topoisomerase I (Homo sapiens, UniProt P11387).
T1 construct: purchased TopoGEN
T1 sequence (P11387 1-765): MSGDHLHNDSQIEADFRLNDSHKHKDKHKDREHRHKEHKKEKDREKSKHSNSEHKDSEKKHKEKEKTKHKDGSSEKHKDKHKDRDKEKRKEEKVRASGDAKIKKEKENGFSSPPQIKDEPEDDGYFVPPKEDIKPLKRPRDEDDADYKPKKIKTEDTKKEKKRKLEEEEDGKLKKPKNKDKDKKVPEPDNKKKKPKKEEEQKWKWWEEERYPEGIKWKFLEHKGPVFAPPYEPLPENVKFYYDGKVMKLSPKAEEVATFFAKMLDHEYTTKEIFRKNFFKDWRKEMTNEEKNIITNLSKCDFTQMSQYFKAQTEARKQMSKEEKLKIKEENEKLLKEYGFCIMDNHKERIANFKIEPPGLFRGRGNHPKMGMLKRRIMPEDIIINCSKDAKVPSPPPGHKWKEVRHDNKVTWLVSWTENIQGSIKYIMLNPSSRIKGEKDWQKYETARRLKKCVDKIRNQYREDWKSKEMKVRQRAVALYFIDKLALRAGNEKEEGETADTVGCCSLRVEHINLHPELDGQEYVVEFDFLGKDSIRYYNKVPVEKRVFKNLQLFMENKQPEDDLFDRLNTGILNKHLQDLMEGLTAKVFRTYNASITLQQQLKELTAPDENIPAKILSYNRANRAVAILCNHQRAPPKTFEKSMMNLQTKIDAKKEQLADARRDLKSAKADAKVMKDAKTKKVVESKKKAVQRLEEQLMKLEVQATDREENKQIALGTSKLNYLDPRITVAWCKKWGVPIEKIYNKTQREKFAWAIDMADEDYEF
The data set can be described thus: Topoisomerase I activity assay in a cell-free system. Type of data set: biochemical. Conditions: purified recombinant human Topo I. Here is the method:
Inhibition of Topo I activity by 9a in a cell-free system. A 1-delivative with an esterified 20-hydroxy group is expected to be activated by digestion with carboxylesterases. […] We authenticated the inhibitory effect of 9a against Topo I in a dose-dependent manner Thus, we confirmed that 9a is a new class of Topo I inhibitor.
One unit of recombinant human Topoisomerase I enzyme (TopoGEN) was pre-incubated for 20 min at 37° C. with vehicle, 9a, 1, 3, or SN-38 in a final volume of 20 μL reaction buffer (10 mM Tris-HCl, pH 7.9, 1 mM EDTA, 150 mM NaCl, 0.1% BSA, 0.1 mM spermidine, 5% glycerol) was then incubated with 250 ng of supercoiled plasmid DNA for 20 min. The supercoiled, relaxed, or nicked DNA was separated by 1% agarose gel in 1×TAE (Tris-Acetate-EDTA) buffer. Ethidium bromide stained agarose gel was photographed using Gel Doc XR (Bio-Rad).

The subject of data set [2] is DU-145 (hormone-insensitive prostate cancer). The data set can be described thus: Sulforhodamine B cytotoxicity assay, DU-145. Type of data set: cell-based, human. Conditions: Homo sapiens, DU-145; Table 1; 72 h; average ± SD. Here is the method:
(§1) The 12 novel 1-derivatives 9a-l were evaluated for in vitro antiproliferative activity against four human tumor cell lines, KB (nasopharyngeal), A-549 (lung), DU-145 (prostate), and KBvin (MDR KB subline), by using a sulforhodamine B colorimetric assay with triplicate experiments.^30 Compounds 1 and 3 were used as controls.
(§2) The human tumor cell lines used in this manuscript were A-549 (lung carcinoma), MDA-MB-231 (triple-negative breast cancer), DU-145 (hormone-insensitive prostate cancer), KB (originally isolated from epidermoid carcinoma of the nasopharynx), KBvin (vincristine-resistant KB subline), and HCT116 (colorectal adenocarcinoma). These cell lines were obtained from the Lineberger Comprehensive Cancer Center (UNC-CH) or from ATCC (Manassas, Va.), except KBvin, which was a generous gift of Professor Y.-C. Cheng (Yale University). All cell lines were maintained and assayed in RPMI-1640 medium containing 2 mM L-glutamine and 25 mM HEPES (HyClone), supplemented with 10% heat-inactivated fetal bovine serum (HyClone), 100 μg/mL streptomycin, 100 IU/mL penicillin, and 0.25 μg/mL amphotericin B (Cellgro) in a humidified atmosphere containing 5% CO2 in air. Compound stock solutions were prepared at 10 mM in DMSO and diluted with culture medium with the final DMSO concentration ≦0.01% (v/v), a concentration without effect on cell growth. The 4-6×10^3 cells/well were cultured for 72 h with various concentrations of test compounds in 96-well plate at 37° C. […] Each assay was performed in triplicate with duplicated samples.

For data set [3] the following is noted: i.p.; cited from earlier work.
The target of another data set is T2, Topo I (Homo sapiens, UniProt P11387).
T2 sequence (P11387 1-765): T1 sequence (P11387 1-765)
The data set can be described thus: Topo I activity assay, nuclear extracts of treated A-549 cells, supercoiled DNA. Type of data set: cell-based. The arrangement: Nuclear extracts from 9a-treated A-549 cells were incubated with supercoiled DNA (for Topo I); endogenous in cells; host or cells: A-549. Here is the method:
First, we determined the effect of 9a on cell cycle distribution using flow cytometry analysis. […] Because it has been shown that 1-Topo I-DNA covalent complexes enhance the transcription-dependent degradation of Topo I via a 26S proteasome pathway,^32 the effects of 9a on the expression levels of Topo I and Topo II were investigated.
(§3) Topo I activity test was performed using an assay kit (TopoGEN) according to the manufacturer's instructions. Nuclear extracts from 9a-treated A-549 cells were incubated with supercoiled DNA (for Topo I) or catenated kDNA (for Topo II) for 30 min at 37° C. Reaction mixture was separated by is 1% agarose gel in 1×TAE buffer. The gel was stained with ethidium bromide and photographed using Gel Doc XR (Bio-Rad).

Another data set deals with Topo II. The data set can be described thus: Topo II activity assay, nuclear extracts of treated A-549 cells, catenated kDNA. It counts as cell-based, human.
Description: First, we determined the effect of 9a on cell cycle distribution using flow cytometry analysis. […] Because it has been shown that 1-Topo I-DNA covalent complexes enhance the transcription-dependent degradation of Topo I via a 26S proteasome pathway,^32 the effects of 9a on the expression levels of Topo I and Topo II were investigated. […] Compound 9a acts directly on Topo I and results in the accumulation of covalent Topo I-DNA complexes followed by proteasomal Topo I degradation, which is the same effect as 1 and contributes to 9a's cytotoxicity.
as §3

Data set [4] has as its system KBvin (vincristine-resistant KB subline). The experiment in a line: Sulforhodamine B cytotoxicity assay, KBvin. It counts as cell-based, human. Conditions: Homo sapiens, KBVIN.
Description: as §2, with “Compound stock solutions were prepared at 10 mM in DMSO and diluted with culture medium with the final DMSO concentration ≦0.01% (v/v), a concentration without effect on cell growth.” left out
(In general: Sulforhodamine B stains cellular protein and so reports cell mass.)

Data set [5] has as its system KB (epidermoid carcinoma of the nasopharynx). The data set can be described thus: Sulforhodamine B cytotoxicity assay, KB. Type of data set: cell-based, human. Conditions: Homo sapiens. Here is the method:
as §1, §2

The subject of data set [6] is MDA-MB-231 (triple-negative breast cancer). The data set can be described thus: Sulforhodamine B cytotoxicity assay, MDA-MB-231. To be noted: Homo sapiens, Table 4, read-out: IC50 (Average ± SD) MDA-MB-231. It counts as cell-based.
Description: as §2, with “Compound stock solutions were prepared at 10 mM in DMSO and diluted with culture medium with the final DMSO concentration ≦0.01% (v/v), a concentration without effect on cell growth.” left out

In the next data set the test system is A-549 (lung carcinoma). The data set can be described thus: Sulforhodamine B cytotoxicity assay, A-549. Type of data set: cell-based, human. To be noted: Homo sapiens, A549; Table 1; 72 h; average ± SD.
Description: as §2, with “Compound stock solutions were prepared at 10 mM in DMSO and diluted with culture medium with the final DMSO concentration ≦0.01% (v/v), a concentration without effect on cell growth.” left out

Data set [7] relates to human colorectal adenocarcinoma HCT116 xenograft. The data set can be described thus: Xenograft model antitumor assay. It counts as in vivo, nu/nu mice. Here is the method:
Xenograft model antitumor assay using human colorectal adenocarcinoma cell line HCT116 was performed according to the regimen in Table 2. The 31-day study utilized four groups of mice (n=8) bearing established HCT116 xenograft with mean volumes of approximately 200 mm^3 on day one. The tumor growth and animal body weight change for each treatment group were measured three times per week (FIGS. 2 and 3). Compound 9a was administered intravenously (i.v.) for 7 days and then intraperitoneally (i.p.) at 5 and 10 mg/kg once every day (QD) to the end.
Five- to six-week-old female nu/nu mice (National Laboratory Animal Center, Taiwan) were inoculated subcutaneously with 2×10^6 human colorectal adenocarcinoma HCT116 cells in flank. When the grafted tumor volume reached the average volume of 200 mm^3, mice were randomly divided into four groups (n=8). Vehicle control and compound 9a at 5 or 10 mg/kg were administered i.v. once a day (QD) for 7 days and then i.p. once a day to the end. As an experimental control group, 100 mg/kg of compound 3 was administered i.v. once a week (QWK) to the end. The length (L) and width (W) of graft was measured every 3 to 4 days to the end, and the tumor volume was calculated as LW^2/2. Results were evaluated statistically by Student's t-test. This study was approved by the Institutional Animal Care and Use Committee (IACUC) of the National Taiwan University (Taipei, Taiwan), and was performed according to the institutional guidelines.

Each structure is given as a SMILES string. Read-outs that look alike come from different tables or passages of the source.

What is called IC50 is the midpoint of a concentration-inhibition curve. One may read the LD50 as the dose expected to kill half of the subjects tested. As to `CC[C@@]1(O)C(=O)OCc2c1cc1n(c2=O)Cc2cc3ccccc3nc2-1` [Compound 1, Camptothecin, reference compound], the “Inhibition of Topo I activity (relaxation/nicking of supercoiled plasmid DNA)” value in data set [1] is “inhibited Topo I activity”. In data set [2], this molecule yielded an IC50 of 29 ± 2.5 nM. Also, the LD50 in data set [3] is 56.2 mg/kg. Also, the “Topo I-mediated relaxation of supercoiled DNA” value at Topo I is on record as “inhibited the relaxation of supercoiled DNA”. For the same molecule, the “Topo II decatenation of kDNA” value in the data set on Topo II was “failed to decatenate kineoplast DNA”.
With `CC[C@@]1(O)C(=O)OCc2c1cc1n(c2=O)Cc2cc3c(CN(C)C)c(O)ccc3nc2-1` [Compound 2, topotecan, reference compound], the IC50 in data set [4] (Table 4, read-out: IC50 (Average ± SD) KBvin) was found to be 400 ± 21 nM; in data set [5] (Table 4, read-out: IC50 (Average ± SD) KB), 63 ± 4.2 nM; in data set [6], 100 ± 5.5 nM.
On to `CCc1c2c(nc3ccc(OC(=O)N4CCC(N5CCCCC5)CC4)cc13)-c1cc3c(c(=O)n1C2)COC(=O)[C@]3(O)CC` [Compound 3, irinotecan, reference compound], for which the IC50 with A-549 (lung carcinoma) is 9500 ± 110 nM; in data set [4] (Table 1, 72 h, average ± SD, read-out: IC50 KBvin) it was above 20000 nM; in [2], 9300 ± 610 nM; in data set [5] (Table 1, 72 h, average ± SD, read-out: IC50 KB) it was 9800 ± 480 nM. Moreover, the “Inhibition of Topo I activity (relaxation/nicking of supercoiled plasmid DNA)” value in data set [1] is on record as “no inhibitory effect on Topo I activity”. Besides, the LD50 in data set [3] was 177.5 mg/kg. The “mice showing complete regression” value in [7] (100 mg/kg QWK i.v., n=8) is given as “three mice”. For the same molecule, the “antitumor activity in vivo (tumor growth)” value in [7] (100 mg/kg QWK, P<0.001) is given as “exhibited antitumor activity”.
As to `CCc1c2c(nc3ccc(O)cc13)-c1cc3c(c(=O)n1C2)COC(=O)[C@]3(O)CC` [SN-38], in data set [1], the “Inhibition of Topo I activity (relaxation/nicking of supercoiled plasmid DNA)” value was “inhibited Topo I activity”.
As to `COc1cc([C@@H]2c3cc4c(cc3[C@@H](O[C@@H]3O[C@@H]5CO[C@@H](C)O[C@H]5[C@H](O)[C@H]3O)[C@H]3COC(=O)[C@H]23)OCO4)cc(OC)c1O` [etoposide], in the data set on Topo II, the “Topo II decatenation of kDNA” value is “effectively blocked the decatenation of kDNA”.
